Tests used:
[1] = system: culture-activated rat primary HSCs; assay: Morphologic reversal of culture-activated HSCs (phase contrast / UV autofluorescence microscopy); type: cell-based; conditions: concentration of 135 and 270 μM
Protocol: The purity of the cells, as determined by phase contrast microscopy and ultraviolet-excited fluorescence microscopy, exceeded 96%, and the viability as determined by trypan blue exclusion exceeded 94%. In vitro activation of HSCs was achieved by culturing rat HSCs in Dulbecco's modified Eagle's medium (DMEM) with 1.0 g/liter glucose, 10% fetal bovine serum and 1% antibiotics on plastic dish for 3, 5 or 7 days. Culture-activated rat primary HSCs were treated with the YGW or starch (control) aqueous extract at 25% (v/v). To obtain the extract, the YGW or starch powder (provided by S.P. Pharmaceutics Inc.) was suspended in DMEM at the concentration of 35 mg/ml, mixed thoroughly with a vortex for 5 min, and centrifuged at ×150 g for 30 min to collect the supernatant. This supernatant was designated as 100% extract and used after filter-sterilization. RA and BC (Sigma Chemical Co) were dissolved in DMSO and tested at the concentration of 67.5˜270 μM.

[2] = system: culture-activated rat primary HSCs; assay: Real time quantitative PCR of cultured HSCs; type: cell-based; conditions: for expression of Necdin / expression of Wnt3a / expression of Wnt10b: 270 μM, day 7 HSCs vs vehicle; for EZH2 expression: day 7 HSCs, RA or BC
From the text: HSCs were isolated from normal male Wistar rats, C57B1/6 and Coll-GFP mice by in situ digestion of the liver and arabinogalactan gradient ultracentrifugation by the Non-Parenchymal Liver Cell Core of the Southern California Research Center for ALPD and Cirrhosis as described previously in Cheng J H et al,. Wnt antagonism inhibits hepatic stellate cell activation and liver fibrosis, Am J Physiol Gastrointest Liver Physiol, 2007 Nov 15; and Zhu N L et al., The […] pathway causes epigenetic peroxisome proliferator-activated receptor gamma repression in hepatic stellate cells, J Biol Chem, 2010 Oct 1; 285(40):30463-30471, both of which are incorporated by reference herein in their entirety as though fully set forth. The purity of the cells, as determined by phase contrast microscopy and ultraviolet-excited fluorescence microscopy, exceeded 96%, and the viability as determined by trypan blue exclusion exceeded 94%. In vitro activation of HSCs was achieved by culturing rat HSCs in Dulbecco's modified Eagle's medium (DMEM) with 1.0 g/liter glucose, 10% fetal bovine serum and 1% antibiotics on plastic dish for 3, 5 or 7 days. Culture-activated rat primary HSCs were treated with the YGW or starch (control) aqueous extract at 25% (v/v). To obtain the extract, the YGW or starch powder (provided by S.P. Pharmaceutics Inc.) was suspended in DMEM at the concentration of 35 mg/ml, mixed thoroughly with a vortex for 5 min, and centrifuged at ×150 g for 30 min to collect the supernatant. This supernatant was designated as 100% extract and used after filter-sterilization. RA and BC (Sigma Chemical Co) were dissolved in DMSO and tested at the concentration of […]. Total RNA was extracted from the cells using TRIzol reagent (Invitrogen) or RNeasy Mini kit (Qiagen). One microgram of RNA was reverse transcribed to cDNA by using SuperScript III First-Strand Synthesis System (Invitrogen) and amplified by 40 cycles using primers listed below and the SYBR Green PCR Master mix reagent (AB Applied Biosystem). Each threshold cycle (Ct) value was first normalized to the 36B4 Ct value of a sample and subsequently compared between the treatment and control samples.

Pparγ gene = assay: Chromatin immunoprecipitation (ChIP) at the Pparγ gene in HSCs; type: cell-based, rat; conditions: day 7 HSCs, RA or BC
Protocol: For assessing Pparγ epigenetic regulation, carrier ChIP was performed using Raji cells as the source of carrier chromatin. For native ChIP, 20 μg of HSC chromatin was mixed with 80 μg of Raji cell chromatin. For cross-link ChIP, Raji cells (1.4×10^7 cells) were mixed to HSCs (0.2×10^6 cells) and fixed with 1% formaldehyde on the rotating platform for 5-10 minutes at room temperature followed by addition of glycine to a final concentration of 0.125M. After lysis of the cells with SDS buffer (1% SDS, 10 mM EDTA, 50 mM Tris-HCl pH8.1) with protease inhibitors, the lysates were sonicated and snap frozen in aliquots. For chromatin IP, diluted samples were first pre-cleared using protein G-agarose beads and then incubated with antibody against […], MeCP2, H3K27me2, H3K4me2 and […] (Abcam) at 1 μg/μl at 4° C. for overnight followed by precipitation with protein G agarose beads. After elution of immunoprecipitated complex, crosslinking was reversed with 5N NaCl and proteins digested with protease K. Extracted chromatin was subjected to real-time PCR using the primers flanking a segment within Pparγ promoter or exon as previously described in Mann J et al., MeCP2 controls an epigenetic pathway that promotes myofibroblast transdifferentiation and fibrosis, Gastroenterology, 2010 Feb; 138(2):705-14, 714, which is incorporated herein by reference as though fully set forth. Ct values of the samples with non-immune IgG were subtracted and compared to their respective input Ct values.

rat HSCs = assay: Immunoblot analysis of cultured HSCs; type: cell-based; conditions: day 7 HSCs, RA or BC
Protocol: Whole cell extracts were prepared as previously described in Hazra S. et al., Peroxisome proliferator-activated receptor gamma induces a phenotypic switch from activated to quiescent hepatic stellate cells, J Biol Chem, 2004 Mar 19; 279 (12):11392-11401, which is incorporated by reference herein as though fully set forth. Equal amounts of the extract (20 μg) were separated by 8-15% SDS-PAGE and the proteins were transferred to nitrocellulose membranes (Bio-Rad, Hercules, Calif.). MeCP2, type I collagen, and β-actin were detected by incubating with rabbit polyclonal anti-MeCP2 (1:1000) (Abcam), antitype I collagen (1:4000), and anti-β-actin (1:5000) primary antibodies (Santa Cruz Biotechnology) in TBS (100 mM Tris-HCl, 1.5 M NaCl, pH 7.4) with 5% nonfat milk overnightat 4° C. followed by incubation with horseradish peroxidase conjugated goat anti-rabbit secondary antibodies (1:4000) (Sigma) at room temperature for 2 hr. The antigen-antibody complexes' chemiluminescence was detected by using the ECL detection kit (Pierce).

[3] = system: TOPFLASH promoter activity in rat primary HSCs; assay: TOPFLASH TCF promoter-luciferase reporter, transient transfection by electroporation; type: cell-based; conditions: day 7 primary HSCs
Protocol: TCF promoter-luciferase construct TOPFLASH (a gift from Dr. Randall Moon, Univ. of Washington, Seattle, Wash.) or a KB luciferase construct was used for transient transfection in the rat primary HSCs by electroporation using the NeonTM Transfection System (Invitrogen). The Renilla pRL-TK construct was used for standardization for transfection efficiency. Cell lysates were analyzed by the dual luciferase assay (Promega) on a luminometer. To assess the activity of IKK, IKK was immunoprecipitated by IKKα antibody and protein G-Sepharose, and the assay was performed at 30° C. for 1 hr in buffer containing 20 mM Tris HCl, pH 7.5, 20 mM MgCl2, 2 mM dithiothreitol, 20 μM ATP, 2 μg GST-IκBα, and [γ-32P]ATP. The reaction was stopped by addition of […] buffer and was resolved by 10% SDS-PAGE followed by a transfer onto a membrane for imaging.

[4] = system: BDL-induced cholestatic liver fibrosis in mice; assay: Bile duct ligation (BDL) cholestatic liver fibrosis model; type: in vivo
Protocol: Male C57B1/6 and collagen α1(I) promoter-GFP (Coll-GFP) mice were subjected to ligation and scission of the common bile duct (BDL) to induce cholestatic liver fibrosis for HSC isolation or testing the therapeutic efficacy of RA. For the latter, after one week following BDL, RA was intraperitoneally injected daily at the dose of 0.1 mg/25 g body weight until the animals were sacrificed one week later for Sirius-red staining morphometry, immunohistochemistry, and qPCR analysis of the livers as described below.
After 3 days of the extract treatment, the cells were washed with cold phosphate-buffered saline (PBS) and fixed in 4% paraformaldehyde (PF). To stain α-smooth muscle actin (SMA), a fluorescein isothiocyanate (FITC) conjugated antibody (1:200, Sigma, Saint Louis, Mo.) was added as a primary antibody at 4° C. for overnight. After washing and blocking with 5% nonfat milk, fluorescence images were viewed by a Nikon microscope as described above. For intracellular lipid staining, HSCs treated with the extract for 3 days were cultured with retinol (5 μM) and palmitic acid (100 μM) (Sigma, Saint Louis, Mo.) for 48 hr, and fixed with 10% formalin in PBS. Oil Red O (0.5% w/v in isopropanol) was diluted with 67% volume of water, filtered, and added to the fixed HSCs. Apoptosis was detected in cultured HSCs and liver sections from BDL mice using a Cell Death Detection kit from Roche. For liver section immunostaining, liver tissues were fixed with 4% PF and embedded in freezing medium. Cryosections (7 μm) were washed with PBS, digested with 20 μg/ml proteinase K (Invitrogen, Carlsbad, Calif.), and blocked with 5% goat serum and 0.2% bovine serum albumin. The sections were then incubated with mouse anti-SMA antibody conjugated with FITC (Sigma, 1:400) and rabbit anti-desmin antibody (Thermo Scientific, Rockford, Ill., 1:400). After washing, the sections were incubated with goat anti-rabbit antibody conjugated with AlexaFluor 568 (Invitrogen, 1:400) and mouse anti-FITC antibody conjugated with DyLight 488 (Jackson ImmunoResearch, West Grove, Pa., 1:400). The sections were mounted with 4,6-diamidino-2-phenylindole (DAPI) (Invitrogen) and fluorescence images were visualized under a microscope. To quantify the percentage and density of HSCs in the liver after BDL with or without treatment of RA, 6 images were randomly captured using a 10× objective lens in 3 different sections and SMA+ and desmin+HSCs in the parenchyma were counted.
Total RNA was extracted from the cells using TRIzol reagent (Invitrogen) or RNeasy Mini kit (Qiagen). One microgram of RNA was reverse transcribed to cDNA by using SuperScript III First-Strand Synthesis System (Invitrogen) and amplified by 40 cycles using primers listed below and the SYBR Green PCR Master mix reagent (AB Applied Biosystem). Each threshold cycle (Ct) value was first normalized to the 36B4 Ct value of a sample and subsequently compared between the treatment and control samples.

[5] = RA ip daily 0.1 mg/25 g, immunohistochemistry SMA/Desmin, vs vehicle
[6] = RA ip daily 0.1 mg/25 g, vs vehicle

SMILES | morphologic reversal of activated HSCs with increased UV-excited autofluorescence [1] | expression of Necdin [2] | expression of Wnt3a [2] | expression of Wnt10b [2] | EZH2 expression [2] | H3K27me2 at the Pparγ exon (Pparγ gene) | MeCP2 enrichment in the Pparγ promoter (Pparγ gene) | MeCP2 protein level (rat HSCs) | TOPFLASH activity [3] | TUNEL+HSCs or hepatocytes in the liver parenchyma ([4]; RA ip daily 0.1 mg/25 g) | density of Desmin+HSCs (increased by BDL) ([4]; RA ip daily 0.1 mg/25 g) | liver to body weight percentage ([4]; RA ip daily 0.1 mg/25 g body weight during second week of BDL) | plasma ALT levels ([4]; RA ip daily 0.1 mg/25 g body weight during second week, p=0.29 vs vehicle) | liver fibrosis by digital morphometric analysis of Sirius red-stained collagen fibers ([4]; RA ip daily 0.1 mg/25 g body weight during second week, vs vehicle) | reduction of the percentage of SMA+HSCs [4, 5] [%] | reduction of the percentage of SMA+MFs [4, 5] [%] | hepatic mRNA level of SMA [4, 6] | hepatic mRNA level of α1(I) procollagen [4, 6]
O=C(O)[C@H]1O[C@@H](Oc2cc3oc(-c4ccccc4)cc(=O)c3c(O)c2O)[C@H](O)[C@@H](O)[C@@H]1O [BC, baicalin] | morphologically reverse activated HSCs to quiescent cells | reduced | suppress | suppress | reduce | reduce | reduce | reduce | suppress | – | – | – | – | – | – | – | – | –
O=C(/C=C/c1ccc(O)c(O)c1)O[C@H](Cc1ccc(O)c(O)c1)C(=O)O [RA, rosmarinic acid] | morphologically reverse activated HSCs to quiescent cells | reduced | suppress | suppress | reduce | reduce | reduce | reduce | suppress | No TUNEL+HSCs or hepatocytes are detected | no effect | 6.8 ± 0.7 | 157+71 | significant attenuation | 75 | 40 | significantly reduced | significantly reduced

Reference: patent US20160106770A1, “EPIGENETIC MECHANISMS OF ANTI-FIBROTIC ACTION FOR THE LIVER” (University of Southern California, priority 2011, published 2016)
